Assay results as given in patent US11046686B2, “Thiadiazole IRAK4 compounds” (Gilead Sciences, Inc., priority 2018, dated 2021).
Read-outs that look alike come from different tables or passages of the source.

Tested on: TNFα
Assay: IRAK4 Monocyte TNFα Cell Based Assay
Parameters: species or system human
Details: read-out: EC50 MONO TNF HTRF
Outline: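 Human monocytes (5,000/well) pretreated with compound 1 h at 37 °C (0.1% DMSO final), then stimulated with 50 pg/ml LPS for 4 h. Secreted TNFα measured by TR-FRET two-antibody detection after overnight incubation at room temperature; % control relative to unstimulated and LPS-stimulated wells.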

[1] = human monocytes, second part of Table 2, compounds 33-343, unit inferred

Structure (SMILES) | EC50 [1] [nM] | also measured
CC(C)Nc1cc(-c2ccc3cc(C#N)cnn23)ncc1-c1nnc(N2CC3CC(C2)N3C(=O)CN=S(C)(C)=O)s1 [Example 107, 7-(5-(5-(6-(2-((dimethyl(oxo)-16-sulfanylidene)amino)acetyl)-3,6-diazabicyclo[3.1.1]heptan-3-yl)-1,3,4-thiadiazol-2-yl)-4-(isopropylamino)pyridin-2-yl)pyrrolo[1,2-b]pyridazine-3-carbonitrile] |  | EC50 (Homo sapiens, Monocyte): 18.4 nM
CC(C)Nc1cc(-c2ccc3cc(C#N)cnn23)ncc1-c1nnc(N2CC3CC(C2)N3C(=O)N2CCN(C)CC2)s1 [Example 108, 7-(4-(isopropylamino)-5-(5-(6-(4-methylpiperazine-1-carbonyl)-3,6-diazabicyclo[3.1.1]heptan-3-yl)-1,3,4-thiadiazol-2-yl)pyridin-2-yl)pyrrolo[1,2-b]pyridazine-3-carbonitrile] |  | EC50 (Homo sapiens, Monocyte): 20.6 nM
CC1(Nc2cc(-c3ccc4cc(C#N)cnn34)ncc2-c2nnc(N3C[C@H]4CC[C@@H](C3)[C@@H]4NC(=O)CN=S(C)(C)=O)s2)COC1 [Example 109, N-((1R,5S,8s)-3-(5-(6-(3-cyanopyrrolo[1,2-b]pyridazin-7-yl)-4-((3-methyloxetan-3-yl)amino)pyridin-3-yl)-1,3,4-thiadiazol-2-yl)-3-azabicyclo[3.2.1]octan-8-yl)-2-((dimethyl(oxo)-16-sulfanylidene)amino)acetamide] | 4.1 | 
CN1CCN(C(=O)N[C@@H]2[C@@H]3CC[C@H]2CN(c2nnc(-c4cnc(-c5ccc6cc(C#N)cnn56)cc4NC4(C)COC4)s2)C3)CC1 [Example 110, N-((1R,5S,8s)-3-(5-(6-(3-cyanopyrrolo[1,2-b]pyridazin-7-yl)-4-((3-methyloxetan-3-yl)amino)pyridin-3-yl)-1,3,4-thiadiazol-2-yl)-3-azabicyclo[3.2.1]octan-8-yl)-4-methylpiperazine-1-carboxamide] | 1.8 | 
CC(=O)N1C2CC1CN(c1nnc(-c3cnc(-c4ccc5cc(C#N)cnn45)cc3NC3(C)COC3)s1)C2 [Example 111, 7-(5-(5-(6-acetyl-3,6-diazabicyclo[3.1.1]heptan-3-yl)-1,3,4-thiadiazol-2-yl)-4-((3-methyloxetan-3-yl)amino)pyridin-2-yl)pyrrolo[1,2-b]pyridazine-3-carbonitrile] |  | EC50 (Homo sapiens, Monocyte): 8.8 nM
CC1(Nc2cc(-c3ccc4cc(C#N)cnn34)ncc2-c2nnc(N3CC4CC(C3)N4C(=O)C(C)(C)O)s2)COC1 [Example 112, 7-(5-(5-(6-(2-hydroxy-2-methylpropanoyl)-3,6-diazabicyclo[3.1.1]heptan-3-yl)-1,3,4-thiadiazol-2-yl)-4-((3-methyloxetan-3-yl)amino)pyridin-2-yl)pyrrolo[1,2-b]pyridazine-3-carbonitrile] |  | EC50 (Homo sapiens, Monocyte): 13.1 nM
CC1(Nc2cc(-c3ccc4cc(C#N)cnn34)ncc2-c2nnc(N3CC4CC(C3)N4C(=O)CN=S(C)(C)=O)s2)COC1 [Example 113, 7-(5-(5-(6-(2-((dimethyl(oxo)-16-sulfanylidene)amino)acetyl)-3,6-diazabicyclo[3.1.1]heptan-3-yl)-1,3,4-thiadiazol-2-yl)-4-((3-methyloxetan-3-yl)amino)pyridin-2-yl)pyrrolo[1,2-b]pyridazine-3-carbonitrile] | 47.4 | 
CN1CCN(C(=O)N2C3CC2CN(c2nnc(-c4cnc(-c5ccc6cc(C#N)cnn56)cc4NC4(C)COC4)s2)C3)CC1 [Example 114, 7-(4-((3-methyloxetan-3-yl)amino)-5-(5-(6-(4-methylpiperazine-1-carbonyl)-3,6-diazabicyclo[3.1.1]heptan-3-yl)-1,3,4-thiadiazol-2-yl)pyridin-2-yl)pyrrolo[1,2-b]pyridazine-3-carbonitrile] |  | EC50 (Homo sapiens, Monocyte): 24.4 nM
C[C@H](C#N)Nc1cc(-c2ccc3cc(C#N)cnn23)ncc1-c1nnc(N2CC3CC(C2)N3C(=O)C(C)(C)O)s1 [Example 115] | 3.5 | 
CC(C)Nc1cc(-c2ccc3cc(C#N)cnn23)ncc1-c1nnc(N2CC3CC(C2)N3C(=O)C2CCN(C)CC2)s1 [Example 117] | 11.1 | 
CN1CCC(C(=O)N2C3CC2CN(c2nnc(-c4cnc(-c5ccc6cc(C#N)cnn56)cc4NC4(C)COC4)s2)C3)CC1 [Example 118, 7-(4((3-methyloxetan-3-yl)amino)-5-(5-(6-(1-methylpiperidine-4-carbonyl)-3,6-diazabicyclo[3.1.1]heptan-3-yl)-1,3,4-thiadiazol-2-yl)pyridin-2-yl)pyrrolo[1,2-b]pyridazine-3-carbonitrile] |  | EC50 (Homo sapiens, Monocyte): 29 nM
CN1CCC(C(=O)N[C@@H]2[C@@H]3CC[C@H]2CN(c2nnc(-c4cnc(-c5ccc6cc(C#N)cnn56)cc4NC4(C)COC4)s2)C3)CC1 [Example 119, N-((1R,5S,8s)-3-(5-(6-(3-cyanopyrrolo[1,2-b]pyridazin-7-yl)-4-((3-methyloxetan-3-yl)amino)pyridin-3-yl)-1,3,4-thiadiazol-2-yl)-3-azabicyclo[3.2.1]octan-8-yl)-1-methylpiperidine-4-carboxamide] | 1.2 | 
CC(C)Nc1cc(-c2ccc3cc(C#N)cnn23)ncc1-c1nnc([C@H]2CC[C@H](NC(=O)C3CC3)CC2)s1 [Example 125, N-((1r,4r)-4-(5-(6-(3-cyanopyrrolo[1,2-b]pyridazin-7-yl)-4-(isopropylamino)pyridin-3-yl)-1,3,4-thiadiazol-2-yl)cyclohexyl)cyclopropanecarboxamide] | 5.4 | 
COC(=O)N[C@H]1CC[C@H](c2nnc(-c3cnc(-c4ccc5cc(C#N)cnn45)cc3NC(C)C)s2)CC1 [Example 126, methyl ((1r,4r)-4-(5-(6-(3-cyanopyrrolo[1,2-b]pyridazin-7-yl)-4-(isopropylamino)pyridin-3-yl)-1,3,4-thiadiazol-2-yl)cyclohexyl)carbamate] | 26.2 | 
COC(=O)NC[C@H]1C[C@H](Nc2cc(-c3ccc4cc(C#N)cnn34)ncc2-c2nnc([C@H]3CC[C@H](NC(=O)C4CC4)CC3)s2)C1 [Example 134, methyl (((1R,3r)-3-((2-(3-cyanopyrrolo[1,2-b]pyridazin-7-yl)-5-(5-((1r,4R)-4-(cyclopropanecarboxamido)cyclohexyl)-1,3,4-thiadiazol-2-yl)pyridin-4-yl)amino)cyclobutyl)methyl)carbamate] | 6.9 | 
N#Cc1cnn2c(-c3cc(NC4COC4)c(-c4nnc([C@H]5CC[C@H](NC(=O)C6CC6)CC5)s4)cn3)ccc2c1 [Example 135, N-((1r,4r)-4-(5-(6-(3-cyanopyrrolo[1,2-b]pyridazin-7-yl)-4-(oxetan-3-ylamino)pyridin-3-yl)-1,3,4-thiadiazol-2-yl)cyclohexyl)cyclopropanecarboxamide] | 10.5 | 
CC(C)Nc1cc(-c2ccc3cc(C#N)cnn23)ncc1-c1nnc(C2CCN(C3COC3)CC2)s1 [Example 138] | 15 | 
CC(C)Nc1cc(-c2ccc3cc(C#N)cnn23)ncc1-c1nnc([C@H]2CC[C@H](NC(=O)N3CCOCC3)CC2)s1 [Example 139, N-((1r,4r)-4-(5-(6-(3-cyanopyrrolo[1,2-]Apyridazin-7-yl)-4-(isopropylamino)pyridin-3-yl)-1,3,4-thiadiazol-2-yl)cyclohexyl)morpholine-4-carboxamide] | 5.9 | 
CNC(=O)N[C@H]1CC[C@H](c2nnc(-c3cnc(-c4ccc5cc(C#N)cnn45)cc3NC(C)C)s2)CC1 [Example 140, 1-((1r,4r)-4-(5-(6-(3-cyanopyrrolo[1,2-b]pyridazin-7-yl)-4-(isopropylamino)pyridin-3-yl)-1,3,4-thiadiazol-2-yl)cyclohexyl)-3-methylurea] | 6.4 | 
COC(=O)NC[C@H]1C[C@H](Nc2cc(-c3ccc4cc(C#N)cnn34)ncc2-c2nnc([C@H]3CC[C@H](NC(=O)N4CCOCC4)CC3)s2)C1 [Example 143] | 3.1 | 
CC(=O)N[C@@H]1[C@@H]2CC[C@H]1CN(c1nnc(-c3cnc(-c4ccc5cc(C#N)cnn45)cc3NC3(C)COC3)s1)C2 [Example 144, N-((1R,5S,8s)-3-(5-(6-(3-cyanopyrrolo[1,2-b]pyridazin-7-yl)-4-((3-methyloxetan-3-yl)amino)pyridin-3-yl)-1,3,4-thiadiazo1-2-yl)-3-azabicyclo[3.2.1]octan-8-yl)acetamide] | 2.3 | 
CC(C)Nc1cc(-c2ccc3cc(C#N)cnn23)ncc1-c1nnc(N2C[C@H]3CC[C@@H](C2)[C@H]3O)s1 [Example 146, 7-(5-(5-((1R,5S,8r)-8-hydroxy-3-azabicyclo[3.2.1]octan-3-yl)-1,3,4-thiadiazol-2-yl)-4-(isopropylamino)pyridin-2-yl)pyrrolo[1,2-b]pyridazine-3-carbonitrile] | 5.2 | 
C[C@H](C#N)Nc1cc(-c2ccc3cc(C#N)cnn23)ncc1-c1nnc(N2C[C@H]3CC[C@@H](C2)[C@@H]3NC(=O)C2CC2)s1 [Example 148, N-((1R,5S,8S)-3-(5-(4-(((R)-1-cyanoethyl)amino)-6-(3-cyanopyrrolo[1,2-b]pyridazin-7-yl)pyridin-3-yl)-1,3,4-thiadiazol-2-yl)-3-azabicyclo[3.2.1]octan-8-yl)cyclopropanecarboxamide] |  | EC50 (Homo sapiens, Monocyte, human monocytes, second part of Table 2, compounds 33-343, unit inferred): 1.4 nM
CC1(Nc2cc(-c3ccc4cc(C#N)cnn34)ncc2-c2nnc(N3C[C@H]4CC[C@@H](C3)[C@H]4O)s2)COC1 [Example 149, 7-(5-(5-((1R,5S,8r)-8-hydroxy-3-azabicyclo[3.2.1]octan-3-yl)-1,3,4-thiadiazol-2-yl)-4-((3-methyloxetan-3-yl)amino)pyridin-2-yl)pyrrolo[1,2-b]pyridazine-3-carbonitrile] | 4.9 | 
CC(C)Nc1cc(-c2ccc3cc(C#N)cnn23)ncc1-c1nnc(N2C[C@H]3CC[C@@H](C2)[C@@H]3NC(=O)C2CC2)s1 [Example 150, N-((1R,5S,8s)-3-(5-(6-(3-cyanopyrrolo[1,2-b]pyridazin-7-yl)-4-(isopropylamino)pyridin-3-yl)-1,3,4-thiadiazol-2-yl)-3-azabicyclo[3.2.1]octan-8-yl)cyclopropanecarboxamide] | 5.2 | 
